In paper PMC9428149, “Tackling recalcitrant Pseudomonas aeruginosa infections in critical illness via anti-virulence monotherapy” (Nature Communications, 2022):
Values joined by “and” are separate entries in the source; they are usually repeats but may differ in a detail not shown here. Equal values may be shown once. “Also recorded” adds a separate entry of the source. Read-outs that look alike come from different tables or passages of the source.

Key:
[1] = target: MvfR binding to the pqsA promoter (Pseudomonas aeruginosa, UniProt Q9I4X0); type: cell-based; settings: for MvfR binding to the pqsA promoter (ChIP-qPCR): D88 +, Figure 5c, replicates
MvfR binding to the pqsA promoter, sequence (Q9I4X0 whole entry, looked up): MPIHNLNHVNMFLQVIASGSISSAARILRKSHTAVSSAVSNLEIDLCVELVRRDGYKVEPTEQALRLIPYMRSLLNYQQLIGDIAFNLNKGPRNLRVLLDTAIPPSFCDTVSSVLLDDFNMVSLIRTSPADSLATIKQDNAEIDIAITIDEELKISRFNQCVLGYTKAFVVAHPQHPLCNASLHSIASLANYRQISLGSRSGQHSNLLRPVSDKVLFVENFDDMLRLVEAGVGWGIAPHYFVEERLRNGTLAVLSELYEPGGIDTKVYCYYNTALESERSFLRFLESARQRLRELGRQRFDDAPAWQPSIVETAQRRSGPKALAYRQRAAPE

claudin-1 = test: Tight junction claudin-1 immunofluorescence, distal ileum; type: in vivo, mouse;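 on Claudin-1 immunofluorescence quantification (Supplimentary Figure 9): fluorescence intensity in arbitrary units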
Protocol: (§1) For the group supplemented with our MvfR-inhibiting compound (D88), mice received five subcutaneous injections (at the nape of the animals) at 1, 4, 8, 12, and 18 h post-BI, at a dose of 24 mg kg^−1 body weight. D88 was prepared in a 40% Captisol vehicle. Control groups received equivalent doses of 40% Captisol vehicle.
Samples of distal ileum fixed with 4% paraformaldehyde were cut in sections and mounted on microscope slides. After deparaffinization and antigen retrieval (Antigen Retrieval reagent; R&D Systems, Minneapolis, MN, USA), tissue sections were immersed in PBS/0.1 tween for 10 min and were blocked by Normal Goat Serum. They were then incubated with primary antibody rabbit polyclonal anti-claudin-1 (Catalog# 71-7800; final concentration, 1:100; Invitrogen, Rockford, IL, USA) overnight in a humid chamber at 4 °C. The sections were washed three times with PBS and secondary antibody goat anti-rabbit (Catalog# ab150061; final concentration: 1:500; Abcam, Cambridge, MA, USA) and DAPI (Catalog# ab228549; Abcam, Cambridge, MA, USA) were added, and incubated 1 h at room temperature. The sections were then washed three times with PBS, dried, and mounted, and images were collected using a confocal microscope (Nikon ECLIPSE Ti2; NIS-Elements AR 5.21.03; Nikon Instruments Inc., Tokyo, Japan).

PA14 burn-site infection [2] = test: Bacterial dissemination and load (CFU) in burn-site infection model; type: in vivo, mouse
Caco-2 cells = test: MTT cytotoxicity, Caco-2; type: cell-based, human; settings: for Cell viability (MTT) relative to Vehicle: Caco-2, replicates
Protocol: (§2) For the determination of cytotoxicity, cell viability was determined using the MTT (3-[4, 5-dimethyl-2-thiazolyl]−2, 5-diphenyl-2H-tetrazolium bromide) assay in the presence and absence of compound (D88). […] The cells were then treated with either vehicle or different concentrations of D88 (10, 20, 30, 40, and 50 µM) for 24 h at 37 °C and 5% CO2. After 24 h, the cells were washed three times with PBS and were incubated in 200 μL PBS containing 200 μg mL^−1 MTT (Sigma-Aldrich) in a 96-well culture plate for 2 h at 37 °C and 5% CO2. Following incubation, the supernatant was discarded, and the cells were lysed in 95% isopropanol and 5% formic acid.

[3] = tested on: MvfR-regulated small molecules at the site of infection; test: Production of HHQ, PQS, HQNO, 2-AA and DHQ in vivo; set-up: species or system mouse
Protocol: as §1
To measure the production of HHQ, PQS, HQNO, 2-AA, and DHQ in vivo, underlying muscle from the site of infection was collected at 12 h and 22 h post-infection, and the small molecules were extracted by homogenizing them immediately in 1 mL sterile PBS as above. A 500 μL of sample was mixed with an equal volume of methanol containing 10 ppm of HHQ-D4 and 20 ppm of PQS-D4, spun down for 5 min, and 700 μL of supernatant were put in glass vials. Liquid chromatography-mass spectrophotometry ([…]) analysis was performed as described above and in[66].

RAW 264.7 cells = test: MTT cytotoxicity, RAW 264.7; type: cell-based, mouse; settings: for Cell viability (MTT) relative to Vehicle: RAW 264.7, replicates
Protocol: as §2

Hep G2 cells = test: MTT cytotoxicity, Hep G2; type: cell-based, human; settings: for Cell viability (MTT) relative to Vehicle: Hep G2, replicates
Protocol: as §2

PA14 burn-site infection [4] = test: In vivo intestinal permeability (FITC-dextran) in burn-site infection model; set-up: species or system mouse
IL-6 = test: Ileal IL-6 ELISA; type: in vivo, mouse; settings: burn + PA14 + D88, 22 h
Protocol: as §1
(§3) Distal ileal TNF-α and IL-6 were quantified using the mouse TNF-α enzyme-linked immunosorbent assay [ELISA] Ready-SET-Go kit (eBioscience; San Diego, CA, USA) and the Mouse IL-6 DuoSet ELISA (R&D Systems) respectively, as per the manufacturer’s instructions.

TNF-α = test: Ileal TNF-α ELISA; type: in vivo, mouse; settings: burn + PA14 + D88, 22 h
Protocol: as §1, §3

[5] = D88 Treated 12h, site of infection, single mice, Figure 6d
[6] = D88 Treated 22h, site of infection, single mice, Figure 6d

N#Cc1ccc(NC(=O)C(F)C(=O)Nc2ccc(Oc3ccccc3)cc2)cc1 (centres unmarked) [D88]
reduction of MvfR binding to the pqs operon promoter ([1]; 50 µM D88, vs control): ~ 80% | PQS-mediated increase in MvfR binding ([1]; D88 50 µM + PQS 38 µM): significantly decreased | MvfR binding to the pqsA promoter (ChIP-qPCR) ([1]; PQS +): 4.271 and 2.782 and 2.485 | MvfR binding to the pqsA promoter (ChIP-qPCR) ([1]; PQS −): 1.532 and 0.7796 and 1.309 | Claudin-1 immunofluorescence quantification (Supplimentary Figure 9) (claudin-1; PA14+D88 group, compare Sham, PA14+Vehicle, ΔmvfR, individual measurements): 148.508 and 162.001 and 157.541 and 137.39 and 152.028 and 182.597 and 148.327 and 116.923 and 109.707 and 109.463 | claudin-1 staining fluorescence intensity (claudin-1; ileum, PA14 infected + D88, 22 h): 142.48 AUs | bacterial dissemination to the intestinal tissues (ileum and colon) (PA14 burn-site infection [2]; burn + PA14, D88, 22 h): significantly reduced | bacterial load at the inoculation site (PA14 burn-site infection [2]; burn + infection, D88, 22 h): not affected | bacterial load at the site of infection (CFUs) (PA14 burn-site infection [2]; infected and D88 treated animals): ~1 × 10^8 | cell viability (Caco-2 cells; Caco-2, 10-50 µM, 24 h): None of the used compound concentrations exerted any cytotoxic effect; also recorded: no significant changes in cell viability | Cell viability (MTT) relative to Vehicle (Caco-2 cells; 10 μM): 100.58 and 104.90 and 98.04 and 98.93 and 106.77 and 103.03 | Cell viability (MTT) relative to Vehicle (Caco-2 cells; 20 μM): 88.76 and 107.49 and 114.33 and 95.92 and 103.96 and 102.97 | Cell viability (MTT) relative to Vehicle (Caco-2 cells; 30 μM): 90.12 and 104.03 and 109.17 and 85.43 and 91.84 and 104.53 | Cell viability (MTT) relative to Vehicle (Caco-2 cells; 40 μM): 102.40 and 93.65 and 104.99 and 92.78 and 93.27 and 104.68 | Cell viability (MTT) relative to Vehicle (Caco-2 cells; 50 μM): 105.69 and 94.78 and 111.93 and 95.33 and 96.54 and 98.13 | levels of HHQ, PQS, HQNO, 2-AA and DHQ at the site of infection ([3]; 12 h post-infection): strong inhibitory efficacy | levels of HHQ, PQS, HQNO, 2-AA and DHQ at the site of infection ([3]; 22 h post-infection): complete abolishment | DHQ [3, 5]: 0.0000 | HQNO [3, 5]: 0.0000 | 2-AA [3, 6]: 0.0000 | DHQ [3, 6]: 0.0000 | cell viability (RAW 264.7 cells; RAW 264.7, 10-50 µM, 24 h): None of the used compound concentrations exerted any cytotoxic effect; also recorded: no significant changes in cell viability | Cell viability (MTT) relative to Vehicle (RAW 264.7 cells; 10 μM): 106.22 and 99.08 and 96.63 and 98.82 and 101.11 and 88.19 | Cell viability (MTT) relative to Vehicle (RAW 264.7 cells; 20 μM): 109.67 and 80.39 and 97.97 and 112.02 and 105.97 and 95.04 | Cell viability (MTT) relative to Vehicle (RAW 264.7 cells; 30 μM): 93.49 and 78.32 and 83.19 and 78.26 and 102.67 and 94.83 | Cell viability (MTT) relative to Vehicle (RAW 264.7 cells; 40 μM): 110.52 and 98.03 and 98.54 and 91.97 and 90.51 and 93.01 | Cell viability (MTT) relative to Vehicle (RAW 264.7 cells; 50 μM): 100.26 and 92.62 and 78.32 and 79.67 and 99.66 and 96.62 | cell viability (Hep G2 cells; Hep G2, 10-50 µM, 24 h): None of the used compound concentrations exerted any cytotoxic effect; also recorded: no significant changes in cell viability | Cell viability (MTT) relative to Vehicle (Hep G2 cells; 10 μM): 91.32 and 107.98 and 99.70 and 117.35 and 109.09 and 100.19 | Cell viability (MTT) relative to Vehicle (Hep G2 cells; 20 μM): 95.30 and 117.21 and 108.45 and 112.28 and 97.33 and 109.75 | Cell viability (MTT) relative to Vehicle (Hep G2 cells; 30 μM): 92.58 and 115.65 and 108.60 and 112.37 and 92.39 and 103.33 | Cell viability (MTT) relative to Vehicle (Hep G2 cells; 40 μM): 107.42 and 114.93 and 105.81 and 114.05 and 107.35 and 99.51 | Cell viability (MTT) relative to Vehicle (Hep G2 cells; 50 μM): 91.19 and 110.82 and 100.96 and 118.91 | mean FITC-dextran in serum (PA14 burn-site infection [4]; burn + PA14 infection, D88 24 mg kg^−1 SC x5, 22 h): 2759 ng/mL | mean FITC-dextran in serum (PA14 burn-site infection [4]; burn alone without infection, D88-treated, 22 h): 850 ng/mL | intestinal permeability status (PA14 burn-site infection [4]; mvfR mutant-infected mice treated with D88 vs no treatment or vehicle): no difference in the intestinal permeability status | ileal IL-6 level (IL-6): marked decrease | mean ileal TNF-α level (TNF-α): 381 pg mL^−1 g^−1 tissue
